From PMC12087874, “Biaryl Phosphates and Phosphonates as Selective Inhibitors of the Transcription Factor STAT4” (Angewandte Chemie (International Ed. in English), 2025)

Legend:
STAT5b = biological target: T1, STAT5b (Homo sapiens, UniProt P51692); test: Competitive fluorescence polarization (FP) assay, STAT5b SH2 domain; format: binding; conditions: for Ki: Ki derived from IC50; for IC50: mean ± SD, n = 3
T1 sequence (P51692 1-787): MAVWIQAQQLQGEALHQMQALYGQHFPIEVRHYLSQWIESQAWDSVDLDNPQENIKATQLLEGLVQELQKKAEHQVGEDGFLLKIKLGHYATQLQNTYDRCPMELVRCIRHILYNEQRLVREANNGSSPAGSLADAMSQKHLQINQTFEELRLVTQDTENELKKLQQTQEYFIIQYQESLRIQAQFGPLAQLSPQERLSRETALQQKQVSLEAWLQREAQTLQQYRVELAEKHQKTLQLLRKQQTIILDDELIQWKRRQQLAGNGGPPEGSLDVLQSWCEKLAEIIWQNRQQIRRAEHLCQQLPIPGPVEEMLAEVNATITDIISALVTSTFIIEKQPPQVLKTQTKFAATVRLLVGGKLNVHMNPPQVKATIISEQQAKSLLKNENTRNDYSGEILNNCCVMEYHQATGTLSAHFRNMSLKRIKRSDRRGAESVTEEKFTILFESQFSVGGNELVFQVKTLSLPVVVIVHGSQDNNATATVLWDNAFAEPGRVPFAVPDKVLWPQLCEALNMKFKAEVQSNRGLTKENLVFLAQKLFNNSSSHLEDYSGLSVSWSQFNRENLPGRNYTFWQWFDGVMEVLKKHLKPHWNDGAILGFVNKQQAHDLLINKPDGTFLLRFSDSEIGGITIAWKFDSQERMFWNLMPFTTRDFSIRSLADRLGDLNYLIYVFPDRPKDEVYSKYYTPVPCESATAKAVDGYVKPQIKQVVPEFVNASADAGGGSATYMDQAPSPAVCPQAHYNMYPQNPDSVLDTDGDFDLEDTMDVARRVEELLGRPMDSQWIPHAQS
Method: (§1) Fluorescence polarization assays
(§2) Competitive fluorescence polarization assays, which measure the abilities of test compounds (dissolved in DMSO) to displace a fluorescent-labeled peptide from the SH2 domain of a STAT protein, were carried out essentially as described. Proteins were used at the following final concentrations: 23 nM or 28 nM for STAT4; between 56 nM and 91 nM for STAT1; 107 nM or 110 nM for STAT3; between 131 nM and 177 nM for STAT5a; between 62 nM and 85 nM for STAT5b; and 101 nM or 106 nM for STAT6. These concentrations represent the approximate […]
(§3) dissociation constant for peptide binding of the respective protein batches used in the assays.
(§4) The following peptides were used: 5-carboxyfluorescein-GpYLPQNID-OH for STAT4; 5-carboxyfluorescein-GpYDKPHVL for STAT1; 5-carboxyfluorescein-GpYLPQTV-NH2 for STAT3; 5-carboxyfluorescein-GpYLVLDKW for STAT5a/b, and 5-carboxyfluorescein- […]
(§5) Gp[…]-OH for STAT6. All peptides were used at a final concentration of 10 nM. The buffer consisted of 10 mM Tris (pH 8.0), 50 mM NaCl, 1 mM EDTA, 1 mM DTT, 0 .1 % Nonidet P-40 substitute, and 2 % DMSO. After incubation of protein and test compound for 1 h at room temperature, the fluorescent -labeled peptide was added. Samples were transferred to 384 - well microtiter plates and fluorescence polarization was read after an additional 60 min of incubation time. Measurements were performed in triplicate. Percent binding was calculated based on a logarithmic curve fit using OriginPro 8G software. IC 50 values were converted to Ki-values via the published equation[3] using the corresponding Excel spread sheet […]
(§6) https://websites.umich.edu/~shaomengwanglab/software/calc_ki/index.html .
(§7) Error bars represent standard deviations. Ligand efficiencies (LE) were calculated by the formula LE = -1,37 x log Ki / number of non-hydrogen atoms.[4] […]

STAT1 = biological target: T2, STAT1 (Homo sapiens, UniProt P42224); test: Competitive fluorescence polarization (FP) assay, STAT1 SH2 domain; format: binding; conditions: for IC50: mean ± SD, n = 3; for Ki: tracer 5-carboxyfluorescein-GpYDKPHVL, Ki derived from IC50
T2 sequence (P42224 1-750): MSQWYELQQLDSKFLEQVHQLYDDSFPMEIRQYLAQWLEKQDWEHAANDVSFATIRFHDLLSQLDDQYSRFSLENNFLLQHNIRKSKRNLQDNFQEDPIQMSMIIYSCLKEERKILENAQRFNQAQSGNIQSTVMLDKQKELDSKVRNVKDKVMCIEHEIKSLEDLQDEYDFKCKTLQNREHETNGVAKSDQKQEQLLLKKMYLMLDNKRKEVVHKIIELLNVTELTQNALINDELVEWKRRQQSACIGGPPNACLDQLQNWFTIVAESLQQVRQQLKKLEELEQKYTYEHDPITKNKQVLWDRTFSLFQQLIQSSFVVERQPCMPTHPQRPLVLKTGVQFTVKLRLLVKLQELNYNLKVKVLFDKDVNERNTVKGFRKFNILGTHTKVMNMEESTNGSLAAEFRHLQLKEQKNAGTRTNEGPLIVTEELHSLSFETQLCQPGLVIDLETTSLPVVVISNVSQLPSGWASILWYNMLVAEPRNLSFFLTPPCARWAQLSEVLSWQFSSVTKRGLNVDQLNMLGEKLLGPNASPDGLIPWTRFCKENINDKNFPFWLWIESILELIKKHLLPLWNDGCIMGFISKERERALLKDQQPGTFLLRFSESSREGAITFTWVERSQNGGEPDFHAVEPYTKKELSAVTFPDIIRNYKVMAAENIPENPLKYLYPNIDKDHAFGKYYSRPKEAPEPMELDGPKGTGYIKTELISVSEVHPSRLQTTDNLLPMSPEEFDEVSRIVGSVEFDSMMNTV
Method: as §1, §2, §3, §4, §5, §6, §7

Compound	Ki (STAT5b) [µM]	IC50 (STAT5b) [µM]	IC50 (STAT1) [µM]	Ki (STAT1) [µM]
O=P(O)(O)Oc1ccc(-c2ccccc2)cc1 [Compound 1, para‐biphenyl phosphate]	47 ± 3	95 ± 6	16 ± 3	8.1 ± 1.4
O=P(O)(O)Oc1ccc(-c2ccc3ccccc3c2)cc1 [Compound 6g]	53 ± 5	109 ± 11	22 ± 2	11 ± 1
O=P(O)(O)Oc1ccc(-c2ccccc2)cc1F [Compound 6h]	45 ± 7	91 ± 14	13 ± 1	6.3 ± 0.6
O=P(O)(O)Oc1ccc(-c2ccc3ccccc3c2)cc1F [Compound 6m]	26 ± 2	52 ± 4	7.8 ± 0.6	3.8 ± 0.3
O=P(O)(O)C(F)(F)c1ccc(-c2ccc3ccccc3c2)cc1F [Compound 8a]	39 ± 1	79 ± 3	63 ± 3	36 ± 2
Cc1cc(-c2ccc(C(F)(F)P(=O)(O)O)c(F)c2)cs1 [Compound 8k]	64 ± 7	130 ± 14	48 ± 4	24 ± 2
